Data reported in patent publication US5763435A, “Sulfate conjugates of ursodeoxycholic acid, and their beneficial use in inflammatory disorders” (priority 1995, dated 1998).
Where “and” joins values, the source holds several entries; their conditions need not be identical. Identical values can stand only once.

Experiments:
Assay type in all cases: in vivo, Sprague-Dawley rats
bile-flow = experiment: Bile-flow and bile acid secretion during i.v. infusion
Procedure: (§1) Adult male Sprague-Dawley rats (body weight 200-230 g) were anesthetized by an intraperitoneal injection of pentobarbital (Nembutal, 7.5 mg/100 g body weight), and maintained under sedation by additional doses. The right jugular vein and the common bile duct were cannulated using PE-50 polyethylene tubing (Clay-Adams, Parsippany, N.J.). Body temperature was maintained throughout the experiment at 37° C. using a rectal probe and a thermostatically controlled heating pad (Harvard Apparatus Co., Inc., Millis, Mass.). Saline was infused at a rate of 1.0 ml/h using a Harvard pump (Harvard Apparatus Co., Inc.) into the jugular vein for a control period of 2h. After collecting two 10 minute bile samples for base-line analysis, the bile acids were individually infused intravenously (i.v.) for 30 minutes in stepwise increasing doses (0.5, 1.0, and 2.0 μmol/min/100 g body weight). Bile acid solutions were prepared in 3% human albumin in 0.45% saline. Six animals were used for each experiment and bile was collected every 10 minutes into preweighed tubes. At the end of the experiment, blood was obtained by cardiac puncture, and urine was obtained by aspiration of the bladder. All biological specimens were stored at -20° C. This animal study protocol (#1 B 10044) was approved by the Bioethics committee of the Children's Hospital Medical Center (Cincinnati, Ohio).
(§2) Bile volume was determined gravimetrically assuming a density of 1 g/ml. Total 3α-hydroxy bile acid concentration in the bile was measured enzymatically before solvolysis (nonsulfated bile acids) and after solvolysis (total bile acids) (Mashige, F., et al., Direct spectrometry of total bile acids in serum. Clin. Chem. 27: 1352-1356 (1981)). The bile acid output was calculated by multiplying the rate of bile-flow by the bile acid concentration. Biliary phospholipids were determined by an enzymatic procedure based on the choline oxidase method (Nippon Shoji Kaisha, Ltd., Osaka, Japan) (Grantz, D., et al., Enzymatic measurement of choline-containing phospholipids in bile. J. Lipid Res. 22: 273-276 (1981)). Cholesterol was also measured enzymatically (Boehringer Mannehim, Indianapolis, Ind.) (Fromm, H., et al., Use of a simple enzymatic assay for cholesterol analysis in human bile. J. Lipid Res. 21: 259-261 (1980)).
(§3) Results were expressed as mean±standard error of mean (SEM). Bile-flow and biliary lipid output were expressed as μl /min/g liver and nmol/min/g liver, respectively. Statistical analysis was made using INSTAT program (Graphpad Software Inc., San Diego, Calif.). Parametric data among groups were analyzed using Student's t-test. The statistical comparisons between the different groups were made by one-way analysis of variance (ANOVA). […] Linear regression analysis was performed. The choleretic activity of each bile acid was determined from the slope of regression line of the correlation between the bile acid secretion rate and bile-flow and was expressed as […]. Comparisons between slopes were made by one-way ANOVA.

[1] = tested on: bile acids secreted in bile; experiment: Biliary bile acid composition during i.v. infusion (GC-MS)
Procedure: as §1
GC-MS was carried out on either a VG Autospec Q magnetic sector instrument or a Finnigan 4635 quadruple GC-MS-DS instrument housing identical GC columns and operated under the same chromatographic conditions. Electron ionization (70 eV) mass spectra were recorded over the mass range 50 to 1000 Da/e by repetitive scanning of the eluting components.
For the determination of hepatic biotransformation of the infused bile acid, bile collections from the six animal were pooled and biliary bile acids were determined by GC-MS after extraction, solvolysis, hydrolysis, and derivatization. Quantification of bile acids was achieved using GC, by comparing the peak height response of the individual bile acid with the peak height response obtained from the internal standard, nordeoxycholic acid added to the initial sample of bile. Identification of a bile acid was made on the basis of the retention index relative to a homologous series of n-alkanes, referred to as the methylene unit value (MU) and the fragmentation pattern of the mass spectrum was compared with authentic standards. A list of over 100 mass spectra of authentic bile acid standards and retention indices was recently compiled as a reference source (Lawson, A. M., et al, Mass spectrometry of bile acids, The Bile Acids, Vol. 4, Methods and Applications, pp. 167-267 (1988)).

biliary lipid secretion = experiment: Biliary lipid (cholesterol, phospholipid) secretion during i.v. infusion
Procedure: as §1, §2, §3

[2] = i.v. infusion 0.5, 1.0, 2.0 μmol/min/100 g, mean ± SEM, six animals

C[C@H](CCC(=O)O)[C@H]1CC[C@H]2[C@@H]3[C@@H](O)C[C@@H]4C[C@H](O)CC[C@]4(C)[C@H]3CC[C@]12C [UDCA, 3 alpha, 7 beta-dihydroxy-5 beta-cholan-24oic acid, reference compound]
Bile flow, maximum (bile-flow; [2]): 4.88 ± 0.16 μl/min/g liver | Bile salt output (biliary bile acid secretion rate), maximum (bile-flow; [2]): 145.10 ± 17.30 nmol/min/g liver and 145.1±17.3 nmol/min/g liver | Apparent choleretic activity (slope of regression line) (bile-flow; i.v. infusion, bile acid secretion rate vs bile-flow): 16 ± 2 µL/µmol | Relative % composition in bile: CA ([1]; 20-30 mins): 49.0% | Relative % composition in bile: CDCA ([1]; 20-30 mins): 3.0% | Relative % composition in bile: DCA ([1]; 20-30 mins): 1.0% | Relative % composition in bile: MCA ([1]; 20-30 mins): 1.0% | Relative % composition in bile: UDCA ([1]; 20-30 mins): 51.9% | Relative % composition in bile: others ([1]; 20-30 mins): 14.6% | Relative % composition in bile: α-MCA ([1]; 20-30 mins): 4.3% | Relative % composition in bile: β-MCA ([1]; 20-30 mins): 17.2% | Relative % composition in bile: CA ([1]; 50-60 mins): 21.4% | Relative % composition in bile: CDCA ([1]; 50-60 mins): 2.5% | Relative % composition in bile: DCA ([1]; 50-60 mins): 0.5% | Relative % composition in bile: MCA ([1]; 50-60 mins): 0.5% | Relative % composition in bile: UDCA ([1]; 50-60 mins): 65.9% | Relative % composition in bile: others ([1]; 50-60 mins): 13.7% | Relative % composition in bile: α-MCA ([1]; 50-60 mins): 3.9% | Relative % composition in bile: β-MCA ([1]; 50-60 mins): 12.6% | Relative % composition in bile: CA ([1]; 80-90 mins): 9.8% | Relative % composition in bile: CDCA ([1]; 80-90 mins): 1.5% | Relative % composition in bile: DCA ([1]; 80-90 mins): 0.7% | Relative % composition in bile: UDCA ([1]; 80-90 mins): 79.5% | Relative % composition in bile: others ([1]; 80-90 mins): 11.9% | Relative % composition in bile: α-MCA ([1]; 80-90 mins): 6.4% | Relative % composition in bile: β-MCA ([1]; 80-90 mins): 9.9% | Further hydroxylation (in words) ([1]; GC-MS of bile): metabolized by further hydroxylation, most probably in the side-chain | Biliary cholesterol secretion (in words) (biliary lipid secretion): significant decline | Biliary phospholipid secretion (in words) (biliary lipid secretion): increased significantly | Cholesterol output, maximal change (biliary lipid secretion; mean ± SEM, six animals): 1.88 ± 0.19 nmol/min/g liver | Phospholipid output, maximal change (biliary lipid secretion; mean ± SEM, six animals): 17.20 ± 1.90 nmol/min/g liver
